Source: US20200316090A1, “TARGETED THERAPEUTICS” (MADRIGAL PHARMACEUTICALS, INC., priority 2012, published 2020)
Read-outs that look alike come from different tables or passages of the source.

Assays:
[1] = Mouse plasma stability (Examples 16-18); assay type: in vitro ADME; conditions: for Mouse (5 μM) % Remaining 1 h (37° C.) §: data from single parent peak; for Mouse (5 μM) % Remaining 1 h (37° C.) * / Mouse (10 μM) % Remaining 1 h (37° C.) *: sum of both peaks of parent chromatogram
Procedure: This solution was used to precipitate all plasma samples in the study. 200 μL was pipetted into a 96 deepwell plate over dry ice. 10 μL of 1 mM stock in DMSO was added to a 1.5 mL microfuge tube, then 990 μL of plasma. Samples were mixed by vortex, then 50 μL of each sample was added in triplicate to a 96-well plate containing internal standard solution. This was designated the 0 hour time point sample. 250 μL of the remaining plasma sample was added to each of four 96 deepwell plates—one per time point. Samples were incubated at 37° C. with gentle shaking for 0.25, 0.5, and 1 hour. After each time point, one plate of each sample was removed from the shaker and placed on wet ice for approximately 2 minutes. 50 μL plasma aliquots (in triplicate) were added to the deepwell plate containing internal standard solution. After the last time point was extracted, the 96 deepwell plate was vortexed, then centrifuged at 2-8° C. 150 μL of supernatant was collected and 25 μL of water was added. Samples were mixed and analyzed by LC-MS/MS.
The stability of seven SDC-TRAP types in mouse plasma was measured as follows. 990 μL mouse plasma aliquots from a common stock were spiked with 10 μL of 1 mM stock of one of seven SDC-TRAP samples identified in the table below. Each sample was mixed and divided into 250 μL aliquots, each representing time points 0, 15 minutes, 30 minutes or 1 hour. At the prescribed time point, 3×50 μL samples were each mixed with 200 μL of methanol containing internal standard and held on dry ice until all time point samples were extracted. The samples collectively were vortex mixed for 1.5 minutes at 1500 rpm, then centrifuged at 4400 rpm for 10 minutes at 8° C.

[2] = Artificial membrane permeability assay (PAMPA)
Procedure: (§1) In order to test the ability SDC-TRAP molecules of the invention to enter cells, an artificial membrane permeability assay (“PAMPA”) was used. […] LC/MS was used in conjunction with PAMPA assays to determine the ability of the SDC-TRAP molecules of the invention to permeate cells.
(§2) Pre-coated PAMPA plates were warmed to room temperature for at least 30 minutes prior to adding assay components.
(§3) Stock solutions were prepared with the SDC-TRAP molecules to be tested. In order to make a working solution, either 50 μL of 100 μM Stock in DMSO+950 μL of PBS or 50 μL of 200 stock was added to 96 deep well plate, resulting in a 5 μM final concentration or a 10 μM final concentration, respectively. […] 200 μL of PBS was added into the corresponding wells of an acceptor PAMPA plates.
(§4) The acceptor plate was lowered onto the donor plate and allowed to incubate for five hours. After five hours, a 50 μL aliquot was removed from each well of each plate and added into a new 96 deep-well plate.
(§5) 100 μL of methanol containing an internal standard was added to each aliquot and analyzed by LC/MS. The internal standard was 150 ng/ml SDC-TRAP-0002.
(§6) In order to calculate the permeability for each SDC-TRAP molecule and the control molecules, the following formula was used:
Permeability (in Unit of Cm/s):
(§7) [formula] • C0=initial compound concentration in donor well (mM) • CD (t)=compound concentration in donor well at time t. (mM) • CA (t)=compound concentration in acceptor well at time t. (mM) • VD=donor well volume=0.3 mL • VA=acceptor well volume=0.2 mL • A=filter area=0.3 cm^2 • t=incubation time=18000 s (5 h)
(§8) For the data presented in the table below, peak area was used in place of concentration in the formula above.

[3] = PAMPA
Procedure: as §1, §2, §3, §4, §5, §6
Permeability (in Unit of Cm/s):
as §7, §8

[4] = Tissue distribution of SDC-TRAP and degradation products in tumor-bearing mice (plasma, tumor, heart); assay type: in vivo, Female SCID Mouse (H1975)
Procedure: A 150 ng/mL solution of SDC-TRAP-0002 in methanol was prepared using an internal spiking solution (500 μg/mL SDC-TRAP-0002 in DMSO). Using the 10 mM stock solutions of the SDC-TRAP molecule and its Hsp90i binding moiety and effector moiety in DMSO, spiking solutions were prepared at 0.025, 0.05, 0.1, 0.5, 1, 5, 10, 50, 100, 250, and 500 μM in DMSO. 5 μL of each spiking solution was added to a 96-deep well plate.
Quality control standards were prepared from 5 μL of 0.1, 1, and 10 μM calibration standard spiking solution added in triplicate into 96-deep well plate and adding 50 μL of matrix (plasma or homogenized tumor).
To prepare test samples, test plasma was diluted as needed using blank plasma. Tumor samples were pulverized in liquid nitrogen, weighed, and homogenized in PBS at 5× volume to sample weight. 50 μL of unknown plasma or homogenized tumor sample was mixed with 5 μL of DMSO. The samples were extracted by precipitating calibration standards, QC standards, and unknown samples with 200 μL of internal standard solution. The samples were mixed by vortex at room temperature for approximately 1.5 minutes, then centrifuge at 2-8° C. 150 μL of supernatant was collected and 25 μL of water added. Samples were mixed and analyzed by LC-MS/MS.
Samples of plasma, heart and tumor were excised from a euthanized mouse, homogenized in PBS at 5 times tissue weight and diluted in 5 μL DMSO/50 μL sample. Prior to analysis, 55 μL samples and calibration standards were precipitated in 200 μL methanol in 96-well plates. Samples were mixed on a vortex mixer for 1.5 minutes at 1500 rpm at room temperature, then centrifuged at 4400 rpm for 10 minutes at 8° C. 150 μL of each supernatant was transferred to a well of a new 96-well plate, and 25 μL of water was added and mixed with the sample. […] For the analysis of samples from female SCID mice, a gradient of solvent A (water/0.1% formic acid) and B (acetonitrile/0.1% formic acid) was used as in Table A below.

[5] = Permeability (10^−6 cm/s), 5 h incubation, peak area used in place of concentration, first table
[6] = Permeability (cm/s), 5 h incubation, peak area used in place of concentration, first table

CCc1c2c(nc3ccc(OC(=O)N(C)CCOCCn4ccc5cc(-n6c(O)nnc6-c6cc(C(C)C)c(O)cc6O)ccc54)cc13)-c1cc3c(c(=O)n1C2)COC(=O)C3(O)CC (stereo not drawn) [SDC-TRAP-0029, 4,11-diethyl-4-hydroxy-3,14-dioxo-3,4,12,14-tetrahydro-1H-pyrano[3′,4′:6,7]indolizino[1,2-b]quinolin-9-yl(2-(2-(5-(3-(2,4-dihydroxy-5-isopropylphenyl)-5-hydroxy-4H-1,2,4-triazol-4-yl)-1H-indol-1-yl)ethoxy)ethyl)(methyl)carbamate]
Mouse (5 μM) % Remaining 1 h (37° C.) § ([1]; 1 h): 43%
Mouse (5 μM) % Remaining 1 h (37° C.) * ([1]; 1 h): 46%
Mouse (5 μM) % Remaining 19 h (37° C.) [1]: 29%
Mouse (10 μM) % Remaining 1 h (37° C.) * ([1]; 1 h): 47%
Papp at 5 h [2]: 0.00646 ×10⁻⁶ cm/s
Mass Retention (%) ([2]; same protocol, second table): 84.0%
Permeability (10^−6 cm/s) ([2]; same protocol, second table): 0.00646 10^−6 cm/s

CCc1c2c(nc3ccc(OC(=O)N(C)CCCCN4CCN(Cc5ccc(-n6c(O)nnc6-c6cc(C(C)C)c(O)cc6O)cc5)CC4)cc13)-c1cc3c(c(=O)n1C2)COC(=O)C3(O)CC (stereo not drawn) [SDC-TRAP-0044, 4,11-diethyl-4-hydroxy-3,14-dioxo-3,4,12,14-tetrahydro-1H-pyrano[3 ‘,4’:6,7]indolizino[1,2-b]quinolin-9-yl (4-(4-(4-(3-(2,4-dihydroxy-5-isopropylphenyl)-5-hydroxy-4H-1,2,4-triazol-4-yl)benzyl)piperazin-1-yl)butyl)(methyl)carbamate]
Mouse (5 μM) % Remaining 1 h (37° C.) * ([1]; 1 h): 50%
Mouse (5 μM) % Remaining 19 h (37° C.) [1]: 41%
Mouse (10 μM) % Remaining 1 h (37° C.) * ([1]; 1 h): 61%

CCc1c2c(nc3ccc(O)cc13)-c1cc3c(c(=O)n1C2)COC(=O)C3(CC)OC(=O)N(C)CCOCCn1ccc2cc(-n3c(O)nnc3-c3cc(C(C)C)c(O)cc3O)ccc21 (stereo not drawn) [SDC-TRAP-0037, 4,11-diethyl-9-hydroxy-3,14-dioxo-3,4,12,14-tetrahydro-1H-pyrano[3′,4′:6,7]indolizino[1,2-b]quinolin-4-yl (2-(2-(5-(3-(2,4-dihydroxy-5-isopropylphenyl)-5-hydroxy-4H-1,2,4-triazol-4-yl)-1H-indol-1-yl)ethoxy)ethyl) (methyl)carbamate]
Mouse (5 μM) % Remaining 1 h (37° C.) * ([1]; 1 h): 67%
Mouse (5 μM) % Remaining 19 h (37° C.) [1]: 6%
Mouse (10 μM) % Remaining 1 h (37° C.) * ([1]; 1 h): 95%

CC(C)c1cc(-c2nnc(O)n2-c2ccc(CN3CCN(C(=O)c4ccc(CCc5c[nH]c6nc(N)[nH]c(=O)c56)cc4)CC3)cc2)c(O)cc1O [SDC-TRAP-0068, 2-amino-5-(4-(4-(4-(3-(2,4-dihydroxy-5-isopropylphenyl)-5-hydroxy-4H-1,2,4-triazol-4-yl)benzyl)piperazine-1-carbonyl)phenethyl)-3H-pyrrolo[2,3-d]pyrimidin-4(7H)-one]
% Remaining (l h) ([1]; mouse, plasma, 1 h, 10 µM): 96.5%

CCc1c2c(nc3ccc(OC(=O)N4CCN(c5ccc(-n6c(O)nnc6-c6cc(C(C)C)c(O)cc6O)cc5)CC4)cc13)-c1cc3c(c(=O)n1C2)COC(=O)C3(O)CC (stereo not drawn) [SDC-TRAP-0045, 4,11-diethyl-4-hydroxy-3,14-dioxo-3,4,12,14-tetrahydro-1H-pyrano[3′,4′:6,7]indolizino[1,2-b]quinolin-9-yl 4-(4-(3-(2,4-dihydroxy-5-isopropylphenyl)-5-hydroxy-4H-1,2,4-triazol-4-yl)phenyl)piperazine-1-carboxylate]
Mouse (5 μM) % Remaining 1 h (37° C.) § ([1]; 1 h): 72%
Mouse (5 μM) % Remaining 1 h (37° C.) * ([1]; 1 h): 77%
Mouse (5 μM) % Remaining 19 h (37° C.) [1]: 50%
Mouse (10 μM) % Remaining 1 h (37° C.) * ([1]; 1 h): 45%

CC(C)c1cc(-c2nnc(O)n2-c2ccc3c(ccn3CCNC(=O)CCCC[C@@H]3SC[C@@H]4NC(=O)N[C@@H]43)c2)c(O)cc1O [SDC-TRAP-0233]
Mass Retention (%) [3]: 10.9%
Permeability [3]: 0.021 ×10⁻⁶ cm/s
Permeability (10^−6 cm/s) [3]: 0.021 10^−6 cm/s

CC(C)c1cc(-c2nnc(O)n2-c2ccc3c(ccn3CCNC(=O)CCCCCNC(=O)CCCC[C@H]3SC[C@H]4NC(=O)N[C@H]43)c2)c(O)cc1O [SDC-TRAP-0234]
Mass Retention (%) [3]: 9.56%
Permeability [3]: 0.0123 ×10⁻⁶ cm/s
Permeability (10^−6 cm/s) [3]: 0.0123 10^−6 cm/s

CCc1c2c(nc3ccc(OC(=O)N4CCN(Cc5ccc(-n6c(O)nnc6-c6cc(C(C)C)c(O)cc6O)cc5)CC4)cc13)-c1cc3c(c(=O)n1C2)COC(=O)C3(O)CC (stereo not drawn) [SDC-TRAP-0046, 4,11-diethyl-4-hydroxy-3,14-dioxo-3,4,12,14-tetrahydro-1H-pyrano[3′,4′:6,7]indolizino[1,2-b]quinolin-9-yl 4-(4-(3-(2,4-dihydroxy-5-isopropylphenyl)-5-hydroxy-4H-1,2,4-triazol-4-yl)benzyl)piperazine-1-carboxylate]
Mouse (5 μM) % Remaining 1 h (37° C.) § ([1]; 1 h): 62%
Mouse (5 μM) % Remaining 1 h (37° C.) * ([1]; 1 h): 65%
Mouse (5 μM) % Remaining 19 h (37° C.) [1]: 37%
Mouse (10 μM) % Remaining 1 h (37° C.) * ([1]; 1 h): 57%
Papp at 5 h [2]: 0.0122 ×10⁻⁶ cm/s
Mass Retention (%) ([2]; same protocol, second table): 88.1%
Permeability (10^−6 cm/s) ([2]; same protocol, second table): 0.0122 10^−6 cm/s
concentration at 12 h ([4]; female, SCID, mouse, in vivo, tissue distribution of SDC-TRAP-0046, 12 h, read-out: Plasma Conc.): 54.2 nM
Kp at 12 h ([4]; female, SCID, mouse, in vivo, tissue distribution of SDC-TRAP-0046, 12 h, read-out: Tumor/Plasma Ratio): 40.3

CCNC(=O)c1nnc(-c2cc(C(C)C)c(O)cc2O)n1-c1ccc(CN2CCC(C(=O)N[C@@H](CC(C)C)C(=O)Nc3cccc4c3CN(C3CCC(=O)NC3=O)C4=O)CC2)cc1 (stereo partly drawn) [SDC-TRAP-0193, 1-(4-(3-(2,4-dihydroxy-5-isopropylphenyl)-5-(ethylcarbamoyl)-4H-1,2,4-triazol-4-yl)benzyl)-N-((2S)-1-((2-(2,6-dioxopiperidin-3-yl)-1-oxoisoindolin-4-yl)amino)-4-methyl-1-oxopentan-2-yl)piperidine-4-carboxamide]
Mass Retention (%) ([2]; 5 h incubation, first table): 10.2%
Papp at 5 h [2, 5]: 0.00859 ×10⁻⁶ cm/s
Papp at 5 h [2, 6]: 0.00859 ×10⁻⁶ cm/s

Nc1cccc2c1CN(C1CCC(=O)NC1=O)C2=O (stereo not drawn) [Lenalidomide, lenalidomide, reference compound]
Mass Retention (%) ([2]; 5 h incubation, first table): 26.0%
Papp at 5 h [2, 5]: 0.062 ×10⁻⁶ cm/s
Papp at 5 h [2, 6]: 0.062 ×10⁻⁶ cm/s
Kp at 1 h ([4]; female, SCID, mouse, in vivo): 11.9
Kp at […] ([4]; female, SCID, mouse, in vivo): 0.449

CC(C)c1cc(-c2nnc(O)n2-c2ccc3c(ccn3CCN(C)C(=O)CCCC(=O)Nc3cccc4c3CN(C3CCC(=O)NC3=O)C4=O)c2)c(O)cc1O (stereo not drawn) [SDC-TRAP-0018, N1-(2-(5-(3-(2,4-dihydroxy-5-isopropylphenyl)-5-hydroxy-4H-1,2,4-triazol-4-yl)-1H-indol-1-yl)ethyl)-N5-(2-(2,6-dioxopiperidin-3-yl)-1-oxoisoindolin-4-yl)-N1-methylglutaramide]
Mass Retention (%) ([2]; 5 h incubation, first table): 14.7%
Papp at 5 h [2, 5]: 0.0268 ×10⁻⁶ cm/s
Papp at 5 h [2, 6]: 0.0268 ×10⁻⁶ cm/s

CCNC(=O)c1nnc(-c2cc(C(C)C)c(O)cc2O)n1-c1ccc(Oc2ccc(C(=O)N3CCC(C(=O)OC4(CC)C(=O)OCc5c4cc4n(c5=O)Cc5c-4nc4ccc(O)cc4c5CC)CC3)cc2)cc1 (stereo not drawn) [SDC-TRAP-0154, 4,11-Diethyl-9-hydroxy-3,14-dioxo-3,4,12,14-tetrahydro-1H-pyrano[3′,4′:6,7]indolizino[1,2-b]quinolin-4-yl 1-(4-(4-(3-(2,4-dihydroxy-5-isopropylphenyl)-5-(ethylcarbamoyl)-4H-1,2,4-triazol-4-yl)phenoxy)benzoyl)piperidine-4-carboxylate]
Mass Retention (%) ([2]; same protocol, second table): 10.3%
Kp ([4]; female, SCID, mouse, in vivo, tissue distribution of SDC-TRAP-0154, 6 h, read-out: Tumor/Plasma Ratio): 0.44
Kp ([4]; female, SCID, mouse, in vivo, tissue distribution of SDC-TRAP-0154, 24 h, read-out: Tumor/Plasma Ratio): 2.68
Kp ([4]; female, SCID, mouse, in vivo, tissue distribution of SDC-TRAP-0154, 48 h, read-out: Tumor/Plasma Ratio): 26.8
Plasma Conc. ([4]; tissue distribution of SDC-TRAP-0154, 1 h): 215000 nM
Tumor Conc. ([4]; tissue distribution of SDC-TRAP-0154, 24 h): 0.115 nmol/g of tissue
Tumor Conc. ([4]; tissue distribution of SDC-TRAP-0154, 48 h): 0.0921 nmol/g of tissue
